# Experiments:
# [1] = molecular target: T1, MurC (Escherichia coli, UniProt P17952); experiment: ligase reaction, product UDP-MurNAc-Gly by mass spectrometry; format: biochemical; details: 18 mM Gly, 1 mM UDP-MurNAc, 5 mM ATP, 20 uM MurC, 24 h; low yield
# T1 construct: C-terminal 6xHis tag (pET21a), expressed in E. coli BL21(DE3)
# [2] = molecular target: T2, YfiH (PgeF) (Escherichia coli, UniProt P33644, C107A); experiment: X-ray crystal structure, […] A; format: binding; details: soaked into YfiH-C107A crystals; pH 5.4; active-site groove
# T2 construct: full length, C-terminal 6xHis tag (pET21a), expressed in E. coli BL21(DE3); Met1 not seen in crystal
# [3] = molecular target: T3, MurD (Escherichia coli, UniProt P14900); experiment: ligase reaction, product by HPLC and ESI-MS; format: biochemical; details: 2 mM D-glutamate, 5 mM ATP, 10 mM MgCl2, pH 8.0, 37 C; preparative synthesis with MurC and MurD
# T3 construct: C-terminal 6xHis tag (pET21a), expressed in E. coli BL21(DE3)
# T3 sequence (P14900 2-438): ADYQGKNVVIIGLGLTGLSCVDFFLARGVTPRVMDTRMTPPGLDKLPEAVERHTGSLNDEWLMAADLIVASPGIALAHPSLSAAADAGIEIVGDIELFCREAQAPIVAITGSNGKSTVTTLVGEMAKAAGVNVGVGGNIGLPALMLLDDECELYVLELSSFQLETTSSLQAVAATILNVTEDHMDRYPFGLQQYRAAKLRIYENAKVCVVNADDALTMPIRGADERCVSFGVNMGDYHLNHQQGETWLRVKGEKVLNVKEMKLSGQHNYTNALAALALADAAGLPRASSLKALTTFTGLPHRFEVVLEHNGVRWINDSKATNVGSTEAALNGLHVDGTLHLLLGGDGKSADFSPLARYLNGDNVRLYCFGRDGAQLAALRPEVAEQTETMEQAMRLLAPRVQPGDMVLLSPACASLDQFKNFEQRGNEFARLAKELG
# [4] = molecular target: T2, YfiH (PgeF); experiment: X-ray crystal structure, […] A; format: binding; details: endogenous ligand copurified from E. coli; pH 5.4; active-site groove
# T2 sequence (P33644 whole entry C107A): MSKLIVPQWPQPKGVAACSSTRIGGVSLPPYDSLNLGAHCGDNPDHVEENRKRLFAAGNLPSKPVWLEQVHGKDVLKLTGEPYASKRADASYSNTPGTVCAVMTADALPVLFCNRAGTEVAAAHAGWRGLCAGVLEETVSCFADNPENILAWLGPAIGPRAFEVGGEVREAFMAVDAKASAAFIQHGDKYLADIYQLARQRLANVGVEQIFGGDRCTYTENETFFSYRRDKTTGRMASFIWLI
# T1 sequence (P17952 whole entry): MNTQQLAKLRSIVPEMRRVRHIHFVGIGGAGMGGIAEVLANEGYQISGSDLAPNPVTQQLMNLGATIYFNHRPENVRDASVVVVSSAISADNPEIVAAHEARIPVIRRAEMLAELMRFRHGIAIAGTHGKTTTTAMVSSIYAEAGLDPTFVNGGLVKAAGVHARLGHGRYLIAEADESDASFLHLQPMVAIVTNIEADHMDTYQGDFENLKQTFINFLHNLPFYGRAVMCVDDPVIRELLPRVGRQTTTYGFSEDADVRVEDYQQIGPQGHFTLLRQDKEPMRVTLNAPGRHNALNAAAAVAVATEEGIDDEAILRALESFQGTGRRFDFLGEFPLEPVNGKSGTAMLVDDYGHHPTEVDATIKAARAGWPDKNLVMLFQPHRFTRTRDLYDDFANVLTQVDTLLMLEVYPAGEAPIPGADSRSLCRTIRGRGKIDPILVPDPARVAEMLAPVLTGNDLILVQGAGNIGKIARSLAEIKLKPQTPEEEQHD
smiles,measurement,setting,value
"NCC(=O)O [Gly, glycine]","ligase reaction, product UDP-MurNAc-Gly by mass spectrometry",[1],"enzymatic synthesis with MurC, using glycine as a substrate"
"CC(=O)N[C@H]1[C@@H](OP(=O)(O)OP(=O)(O)OC[C@H]2O[C@@H](n3ccc(=O)[nH]c3=O)[C@H](O)[C@@H]2O)O[C@H](CO)[C@@H](O)[C@@H]1O[C@H](C)C(=O)N[C@@H](CO)C(=O)O [UMS, UDP–MurNAc–L-Ser]","X-ray crystal structure, 1.86 A",[2],we obtained the crystals of YfiH bound to UDP–MurNAc–L-Ser
same,"ligase reaction, product by HPLC and ESI-MS",[3],UDP–MurNAc–L-Ser–D-Glu (UMSE) with recombinant MurD
"CC(=O)N[C@H]1[C@@H](OP(=O)(O)OP(=O)(O)OC[C@H]2O[C@@H](n3ccc(=O)[nH]c3=O)[C@H](O)[C@@H]2O)O[C@H](CO)[C@@H](O)[C@@H]1O[C@H](C)C(=O)O [UM, UDP-MurNAc]","X-ray crystal structure, 1.47 A",[4],This compound was unambiguously identified as UDP-MurNAc based on its high-resolution map
"CC(=O)N[C@H]1[C@@H](OP(=O)(O)OP(=O)(O)OC[C@H]2O[C@@H](n3ccc(=O)[nH]c3=O)[C@H](O)[C@@H]2O)O[C@H](CO)[C@@H](O)[C@@H]1O[C@H](C)C(=O)N[C@@H](C)C(=O)O [UMA, UDP–MurNAc–L-Ala]","ligase reaction, product by HPLC and ESI-MS",[3],we further synthesized UDP–MurNAc–L-Ala–D-Glu (UMAE)

# — PMC8844914, “Structural Basis for the Peptidoglycan-Editing Activity of YfiH” (mBio, 2022)
